Data on ten molecules can be found in ChEMBL document CHEMBL3997794, “Design and synthesis of benzodiazepine analogs as isoform-selective human lysine deacetylase inhibitors” (Eur J Med Chem, 2017).

The target of one assay is T1, Histone deacetylase 8 (Homo sapiens, UniProt Q9BY41).
T1 sequence (Q9BY41 whole entry): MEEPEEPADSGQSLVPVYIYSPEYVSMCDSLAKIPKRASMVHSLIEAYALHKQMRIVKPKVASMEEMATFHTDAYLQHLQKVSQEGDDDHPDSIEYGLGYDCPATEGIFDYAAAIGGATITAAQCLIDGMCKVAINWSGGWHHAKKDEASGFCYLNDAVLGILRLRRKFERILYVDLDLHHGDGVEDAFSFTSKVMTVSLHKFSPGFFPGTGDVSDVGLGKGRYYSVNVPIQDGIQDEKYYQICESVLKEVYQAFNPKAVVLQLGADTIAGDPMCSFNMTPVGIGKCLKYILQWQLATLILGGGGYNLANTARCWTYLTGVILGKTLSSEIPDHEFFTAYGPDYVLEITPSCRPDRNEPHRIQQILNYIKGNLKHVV
Briefly: Inhibition of human KDAC8 after 60 mins by fluorescence assay.

Assay [1] concerns the target T2, Protein deacetylase HDAC6 (Homo sapiens, UniProt Q9UBN7).
T2 sequence (Q9UBN7 whole entry): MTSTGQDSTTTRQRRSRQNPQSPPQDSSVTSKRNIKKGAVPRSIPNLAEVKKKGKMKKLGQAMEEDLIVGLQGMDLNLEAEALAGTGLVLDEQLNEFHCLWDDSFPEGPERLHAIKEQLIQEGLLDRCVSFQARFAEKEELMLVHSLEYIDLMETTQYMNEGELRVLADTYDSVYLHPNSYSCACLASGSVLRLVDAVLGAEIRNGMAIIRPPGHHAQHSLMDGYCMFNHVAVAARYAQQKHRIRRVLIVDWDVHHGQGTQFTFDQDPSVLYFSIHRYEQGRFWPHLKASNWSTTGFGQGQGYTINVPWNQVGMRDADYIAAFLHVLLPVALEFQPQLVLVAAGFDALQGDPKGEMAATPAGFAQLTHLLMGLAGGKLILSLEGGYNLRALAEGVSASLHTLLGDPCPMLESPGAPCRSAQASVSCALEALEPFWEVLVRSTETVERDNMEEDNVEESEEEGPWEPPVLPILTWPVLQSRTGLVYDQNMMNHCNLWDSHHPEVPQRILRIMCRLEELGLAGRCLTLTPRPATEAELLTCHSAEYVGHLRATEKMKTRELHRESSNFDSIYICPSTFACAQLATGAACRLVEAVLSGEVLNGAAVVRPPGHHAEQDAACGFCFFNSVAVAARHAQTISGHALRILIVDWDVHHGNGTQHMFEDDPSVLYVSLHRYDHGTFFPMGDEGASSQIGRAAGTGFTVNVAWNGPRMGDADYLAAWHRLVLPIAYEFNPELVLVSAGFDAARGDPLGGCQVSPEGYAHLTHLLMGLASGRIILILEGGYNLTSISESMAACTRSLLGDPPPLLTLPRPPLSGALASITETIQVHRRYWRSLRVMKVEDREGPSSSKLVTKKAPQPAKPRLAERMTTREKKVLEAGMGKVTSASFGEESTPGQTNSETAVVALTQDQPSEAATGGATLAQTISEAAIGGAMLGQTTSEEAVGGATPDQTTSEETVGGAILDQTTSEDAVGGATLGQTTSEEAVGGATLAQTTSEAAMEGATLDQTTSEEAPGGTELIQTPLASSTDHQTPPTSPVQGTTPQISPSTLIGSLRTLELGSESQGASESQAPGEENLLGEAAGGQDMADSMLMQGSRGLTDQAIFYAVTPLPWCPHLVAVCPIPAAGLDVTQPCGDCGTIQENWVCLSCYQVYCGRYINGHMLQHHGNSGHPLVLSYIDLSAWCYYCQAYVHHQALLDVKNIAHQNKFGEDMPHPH
Description: Inhibition of human KDAC6 using FITC-labeled histone H4 acetylated peptide as substrate after 60 mins by fluorescence assay.

The target in assay [2] is T3, Histone deacetylase 3 (Homo sapiens, UniProt O15379). Briefly: Inhibition of human KDAC3 using FITC-labeled p53 acetylated peptide as substrate after 60 mins by fluorescence assay.
T3 sequence (O15379 whole entry): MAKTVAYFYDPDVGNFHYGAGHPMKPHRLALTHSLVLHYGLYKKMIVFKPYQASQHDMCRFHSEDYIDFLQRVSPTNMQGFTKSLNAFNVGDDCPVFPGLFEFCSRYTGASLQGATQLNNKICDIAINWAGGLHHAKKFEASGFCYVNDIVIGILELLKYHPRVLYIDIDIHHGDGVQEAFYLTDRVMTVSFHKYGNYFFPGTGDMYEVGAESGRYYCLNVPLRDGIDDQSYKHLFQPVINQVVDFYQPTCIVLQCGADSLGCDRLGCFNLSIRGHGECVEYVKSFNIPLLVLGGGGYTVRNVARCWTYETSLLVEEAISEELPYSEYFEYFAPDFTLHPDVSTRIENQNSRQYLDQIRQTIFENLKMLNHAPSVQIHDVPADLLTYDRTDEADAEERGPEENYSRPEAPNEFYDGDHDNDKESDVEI
Assay [3] concerns the target T4, Histone deacetylase 1 (Homo sapiens, UniProt Q13547). Briefly: Inhibition of human KDAC1 using substrate A after 60 mins by fluorescence assay.
Assay [4] deals with T5, Histone deacetylase 8 (Homo sapiens) (UniProt Q9BY41).
T5 sequence (whole entry): T1 sequence (Q9BY41 whole entry)
Briefly: Inhibition of human KDAC8 at 30 uM after 60 mins by fluorescence assay relative to control.

Assay [5] deals with T3, Histone deacetylase 3. Description: Inhibition of human KDAC3 at 30 uM using FITC-labeled p53 acetylated peptide as substrate after 60 mins by fluorescence assay relative to control.
Assay [6] deals with T4, Histone deacetylase 1. Description: Inhibition of human KDAC1 at 30 uM using substrate A after 60 mins by fluorescence assay relative to control.
Assay [7] deals with T6, Protein deacetylase HDAC6 (Homo sapiens) (UniProt Q9UBN7).
T6 sequence (whole entry): T2 sequence (Q9UBN7 whole entry)
To be noted: at 30 µM.
Description: Inhibition of human KDAC6 at 30 uM using FITC-labeled histone H4 acetylated peptide as substrate after 60 mins by fluorescence assay relative to control

The term IC50 denotes the concentration needed to halve the response being measured. Lower therefore signals greater potency. Usually inhibition stands for the share of the control response that was lost under treatment. A lower inhibition goes with a weak effect.

T4 sequence (Q13547 whole entry): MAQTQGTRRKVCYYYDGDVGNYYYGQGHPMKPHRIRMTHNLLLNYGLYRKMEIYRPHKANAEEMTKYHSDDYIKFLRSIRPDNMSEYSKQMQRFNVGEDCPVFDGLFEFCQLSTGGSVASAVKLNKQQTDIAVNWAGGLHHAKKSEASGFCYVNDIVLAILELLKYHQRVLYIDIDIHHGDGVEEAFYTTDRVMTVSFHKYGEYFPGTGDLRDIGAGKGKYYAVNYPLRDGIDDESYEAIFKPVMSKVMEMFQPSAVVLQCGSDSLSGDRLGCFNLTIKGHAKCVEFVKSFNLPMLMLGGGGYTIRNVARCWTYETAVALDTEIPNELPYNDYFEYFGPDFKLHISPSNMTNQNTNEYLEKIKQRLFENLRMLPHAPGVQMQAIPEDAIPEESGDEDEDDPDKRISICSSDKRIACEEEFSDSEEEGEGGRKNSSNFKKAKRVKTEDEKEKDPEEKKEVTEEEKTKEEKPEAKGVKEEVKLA

Take `C[C@@H](O)[C@@H]1N=C(c2ccccc2)c2ccccc2N(CCCCC(=O)NO)C1=O`: the IC50 on Histone deacetylase 8 is more than 30 µM; in assay [1] it was 11.6 µM; on Histone deacetylase 3 [2], 1.8 µM; against Histone deacetylase 1 [3], 11.2 µM. The inhibition in assay [4] came to 40.3%; on Histone deacetylase 3 [5], 94.2%; at Histone deacetylase 1 [6], 66.5%; in assay [7], 70.1%.

Regarding `O=C(O)CCCCN1C(=O)[C@H](Cc2ccccc2)N=C(c2ccccc2)c2ccccc21`, the half-inhibitory concentration (IC50) (at Histone deacetylase 8; in assay [1]; against Histone deacetylase 3 [2]; against Histone deacetylase 1 [3]) was more than 30 µM in each case. Also, the inhibition in assay [4] was found to be 6.22%; against Histone deacetylase 3 [5] it was 0.91%; against Histone deacetylase 1 [6], 11.9%; in assay [7], 0%.

For `O=C(O)CC[C@@H]1N=C(c2ccccc2)c2ccccc2NC1=O`, the 50% inhibitory concentration (IC50) (on Histone deacetylase 8; in assay [1]; on Histone deacetylase 3 [2]; against Histone deacetylase 1 [3]) was more than 30 µM in each case. The inhibition was determined as 0% in assay [4], 0% against Histone deacetylase 3 [5], 2.44% at Histone deacetylase 1 [6] and 0% in assay [7].

`COC(=O)CCCCN1C(=O)[C@H](Cc2cncn2C(c2ccccc2)(c2ccccc2)c2ccccc2)N=C(c2ccccc2)c2ccccc21`: the IC50 (against Histone deacetylase 8; in assay [1]; against Histone deacetylase 3 [2]; on Histone deacetylase 1 [3]) was more than 30 µM throughout. The inhibition stood at 12.1% in assay [4], 0% against Histone deacetylase 3 [5], 4.66% against Histone deacetylase 1 [6] and 5.33% in assay [7].

Regarding `O=C(O)C[C@@H]1N=C(c2ccccc2)c2ccccc2N(CCCCC(=O)NO)C1=O`, the IC50 against Histone deacetylase 8 is more than 30 µM; in assay [1], 19.8 µM; on Histone deacetylase 3 [2] it was 12.6 µM; on Histone deacetylase 1 [3], more than 30 µM. Besides, the inhibition in assay [4] worked out at 39.4%; at Histone deacetylase 3 [5], 75.5%; at Histone deacetylase 1 [6], 47.9%; in assay [7], 57.8%.

`CC(C)(C)OC[C@@H]1N=C(c2ccccc2)c2ccccc2N(CCCCC(=O)NO)C1=O`: the IC50 was more than 30 µM at Histone deacetylase 8, 5.05 µM in assay [1], 1.21 µM on Histone deacetylase 3 [2] and 9 µM on Histone deacetylase 1 [3]. Further, the inhibition in assay [4] was found to be 26.9%; on Histone deacetylase 3 [5], 94.6%; against Histone deacetylase 1 [6] it was 73.7%; in assay [7] it was 85.1%.

Regarding `CC[C@H](C)[C@@H]1N=C(c2ccccc2)c2ccccc2N(CCCCC(=O)OC)C1=O`, the IC50 (against Histone deacetylase 8; in assay [1]; against Histone deacetylase 3 [2]; on Histone deacetylase 1 [3]) was more than 30 µM each time. Besides, the inhibition is 2.38% in assay [4], 0% at Histone deacetylase 3 [5], 2.83% at Histone deacetylase 1 [6] and 0% in assay [7].

On to `O=C1Nc2ccccc2C(c2ccccc2)=N[C@H]1Cc1ccccc1`, for which the concentration for half-maximal inhibition (IC50) (on Histone deacetylase 8; in assay [1]; against Histone deacetylase 3 [2]; against Histone deacetylase 1 [3]) was more than 30 µM throughout. Moreover, the inhibition was 0% in assay [4], 0% against Histone deacetylase 3 [5], 0.91% against Histone deacetylase 1 [6] and 3.33% in assay [7].

Take `O=C(CCCCN1C(=O)[C@H](Cc2cnc[nH]2)N=C(c2ccccc2)c2ccccc21)NO`: the IC50 on Histone deacetylase 8 was more than 30 µM; in assay [1], 4.98 µM; against Histone deacetylase 3 [2] it was 1.32 µM; at Histone deacetylase 1 [3], 13.9 µM. Also, the inhibition in assay [4] was found to be 42.4%; against Histone deacetylase 3 [5], 99%; against Histone deacetylase 1 [6], 61.4%; in assay [7], 84.6%.

Consider `O=C(C[C@H]1N=C(c2ccccc2)c2ccccc2NC1=O)NO`, for which the half-maximal inhibitory concentration (IC50) (on Histone deacetylase 8; in assay [1]; at Histone deacetylase 3 [2]; on Histone deacetylase 1 [3]) was more than 30 µM in each case. Also, the inhibition in assay [4] is 19%; at Histone deacetylase 3 [5] it was 1.64%; against Histone deacetylase 1 [6], 9.14%; in assay [7], 0%.
